Reference: US20130315843A1, “COMPOSITION FOR REDUCTION OF TRPA1 AND TRPV1 SENSATIONS” (priority 2012, published 2013)
Counter-ions that a name gives are not always drawn. Like-named read-outs stand apart in the source and are kept apart here.

What was measured:
human TRPA1 [1] = biological target: T1, human TRPA1 (Homo sapiens, UniProt O75762); assay: FLIPR Ca2+ assay, reduction of L-Menthol activation of TRPA1
Protocol: In order to determine whether TRPA1 is activated, the intracellular calcium ion (Ca^2+) level from transfected cells with the TRPA1 receptor gene was measured. HEK-2 cells stably transfected with human TRPA1 were grown in 15 ml growth medium [high glucose DMEM (Dulbecco's Modification of Eagle's Medium) supplemented with 10% FBS (fetal bovine serum), 100 μg/ml Penicillin/streptomycin, 100 μg/ml G418] in a 75 Cm^2 flask for 3 days at 37° C. in a mammalian cell culture incubator set at 5% CO2. Cells were detached with addition of 10 ml of PBS (phosphate buffered saline) by hand shaking gently and transferred to a 50 ml tube and centrifuged at 850 rpm for 3 minutes to remove PBS. After centrifugation, a pellet of cells was formed in the bottom of the tube separating them from the supernatant solution. […] Fluo-4 is a fluorescent dye used for quantifying cellular Ca^2+ concentrations in the 100 nM to 1 μM range.
The pelleted cells were re-suspended in 10 ml assay buffer and 90 μl aliquots (˜50,000 cells) per well delivered to a 96-well assay plate containing 10 μl of test compounds (1 mM in assay buffer, final concentration 100 μM) or buffer control and incubated at room temperature for 30 minutes. After 30 minutes, the plate was placed into a fluorometric imaging plate reader (FLIPR384 from Molecular Devices) and basal fluorescence recorded (excitation wave length 488 nm and emission wave length 510 nm). Then 20 μl of the molecule being tested as a TRPA1 antagonist was added and fluorescence recorded. For determining the direct effect of test compounds on TRPA1, fluorescence was measured immediately after addition of each compound.
To determine if a compound was an antagonist or a desensitizer the direct effect of a test compound was determined. For determining the direct effect of test compounds on TRPA1 receptor activation, 100 μl aliquots (˜50,000 cells) of cells prepared as described above were delivered to a 96-well assay plate and basal fluorescence recorded as noted above. Then 20 μl of the compound being tested as a TRPA1 activator was added and fluorescence recorded. If any increase in fluorescence over background was noted, then the compound was considered an agonist.

human TRPV1 = human TRPV1 (Homo sapiens, UniProt Q8NER1); assay: FLIPR Ca2+ assay, reduction of L-Menthol activation of TRPV1; conditions: for inhibition at 100 µM: read-out: % Reduction of L-Menthol TRPV1 Activation
Chain of human TRPV1 (Q8NER1 whole entry): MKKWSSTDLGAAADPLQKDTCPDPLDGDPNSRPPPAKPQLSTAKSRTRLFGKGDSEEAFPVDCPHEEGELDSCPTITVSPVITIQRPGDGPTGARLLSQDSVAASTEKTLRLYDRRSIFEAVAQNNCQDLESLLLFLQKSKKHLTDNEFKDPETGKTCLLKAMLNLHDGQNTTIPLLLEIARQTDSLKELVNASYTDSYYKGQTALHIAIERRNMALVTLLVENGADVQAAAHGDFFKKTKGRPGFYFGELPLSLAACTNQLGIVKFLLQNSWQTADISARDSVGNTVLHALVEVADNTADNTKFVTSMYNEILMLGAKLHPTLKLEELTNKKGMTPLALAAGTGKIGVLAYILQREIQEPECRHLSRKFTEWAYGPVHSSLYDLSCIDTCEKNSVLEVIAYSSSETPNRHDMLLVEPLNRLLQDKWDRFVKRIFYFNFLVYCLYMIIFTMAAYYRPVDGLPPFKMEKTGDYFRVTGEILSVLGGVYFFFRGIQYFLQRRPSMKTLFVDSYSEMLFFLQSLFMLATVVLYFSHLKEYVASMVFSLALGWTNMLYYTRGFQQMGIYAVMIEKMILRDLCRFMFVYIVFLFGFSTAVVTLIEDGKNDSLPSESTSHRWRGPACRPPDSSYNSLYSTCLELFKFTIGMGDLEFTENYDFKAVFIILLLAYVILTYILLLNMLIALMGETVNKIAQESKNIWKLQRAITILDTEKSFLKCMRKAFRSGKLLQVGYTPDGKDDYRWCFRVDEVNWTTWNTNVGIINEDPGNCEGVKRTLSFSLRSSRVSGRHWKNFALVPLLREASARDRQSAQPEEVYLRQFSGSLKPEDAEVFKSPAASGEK
Protocol: To determine whether TRPV1 was activated, the intracellular calcium ion (Ca^+2) levels from cells transfected with the TRPV1 receptor gene was measured. HEK-239 cells stably transfected with human TRPV1 were grown in 15 ml growth medium [high glucose DMEM (Dulbecco's Modification of Eagle's Medium) supplemented with 10% FBS (fetal bovine serum), 100 g/ml Penicillin/streptomycin, 100 g/ml G418] in a 75 Cm2 flask for 3 days at 33° C. in a mammalian cell culture incubator set at 5% CO2. Cells were detached with addition of 10 ml of PBS (phosphate buffered saline) by hand shaking gently. Cells were transferred to a 50 ml tube and centrifuged at 850 rpm for 3 minutes to remove PBS. After centrifugation, a pellet of cells formed in the bottom of the tube separating them from the supernatant solution. The supernatant was discarded and the cell pellet suspended in 1 ml of fresh growth medium to which 5 μl (12.5 g) of Fluo-4 AM (Molecular Probes, Inc., Eugene, Oreg.) calcium indicator was added and incubated for 30 minutes with gentle shaking.
The pelleted cells were re-suspended in 10 ml assay buffer and 90 μl aliquots (˜50,000 cells) per well delivered to a 96-well assay plate containing 10 μl of test compounds (1 mM in assay buffer, final concentration 100 μM) or buffer control and incubated at room temperature for 30 minutes. After 30 minutes, the plate was placed into a fluorometric imaging plate reader (FLIPR384 from Molecular Devices) and basal fluorescence recorded (excitation wave length 488 nm and emission wave length 510 nm). Then 20 μl of the compound being tested as a TRPV1 receptor activator was added and fluorescence recorded. […] It may be no difference (no effect), or negative (means antagonist or desensitizer) or positive (enhancer, also known as positive allosteric modulator). […] To determine if a compound was an antagonist or a desensitizer, the direct effect of a test compound was determined. For determining the direct effect of test compounds on TRPV1, 100 μl aliquots (˜50,000 cells) of cells prepared as described above were delivered to a 96-well assay plate and basal fluorescence recorded as noted above. Then 20 μl of the compound being tested as a TRPV1 receptor activator was added and fluorescence recorded. If any increase in fluorescence over background was noted, then the compound was considered an agonist. The agonist activity was expressed relative to that observed with a benchmark agonist such as 350 nM Capsaicin for TRPV1.
100 μM of antagonist was tested against 1 mM of L-Menthol to determine the level of reduced TRPV1 receptor activation by L-Menthol. Each antagonist compound was run with 1 mM of L-Menthol as a control and the antagonist activity of each compound was determined by comparing the Ca^2+ levels of the control with the antagonist compound being tested.

human TRPA1 [2] = biological target: T1, human TRPA1; assay: FLIPR Ca2+ assay, reduction of hydrogen peroxide activation of TRPA1; type: cell-based; set-up: expressed in transfected cells
Protocol: After centrifugation, a pellet of cells was formed in the bottom of the tube separating them from the supernatant solution.
The pelleted cells were re-suspended in 10 ml assay buffer and 90 μl aliquots (˜50,000 cells) per well delivered to a 96-well assay plate containing 10 μl of test compounds ([…]) or buffer control and incubated at room temperature for 30 minutes.

[3] = 100 μM antagonist vs 1 mM L-Menthol
[4] = antagonist 100 μM against 1 mM L-Menthol

T1 sequence (O75762 whole entry): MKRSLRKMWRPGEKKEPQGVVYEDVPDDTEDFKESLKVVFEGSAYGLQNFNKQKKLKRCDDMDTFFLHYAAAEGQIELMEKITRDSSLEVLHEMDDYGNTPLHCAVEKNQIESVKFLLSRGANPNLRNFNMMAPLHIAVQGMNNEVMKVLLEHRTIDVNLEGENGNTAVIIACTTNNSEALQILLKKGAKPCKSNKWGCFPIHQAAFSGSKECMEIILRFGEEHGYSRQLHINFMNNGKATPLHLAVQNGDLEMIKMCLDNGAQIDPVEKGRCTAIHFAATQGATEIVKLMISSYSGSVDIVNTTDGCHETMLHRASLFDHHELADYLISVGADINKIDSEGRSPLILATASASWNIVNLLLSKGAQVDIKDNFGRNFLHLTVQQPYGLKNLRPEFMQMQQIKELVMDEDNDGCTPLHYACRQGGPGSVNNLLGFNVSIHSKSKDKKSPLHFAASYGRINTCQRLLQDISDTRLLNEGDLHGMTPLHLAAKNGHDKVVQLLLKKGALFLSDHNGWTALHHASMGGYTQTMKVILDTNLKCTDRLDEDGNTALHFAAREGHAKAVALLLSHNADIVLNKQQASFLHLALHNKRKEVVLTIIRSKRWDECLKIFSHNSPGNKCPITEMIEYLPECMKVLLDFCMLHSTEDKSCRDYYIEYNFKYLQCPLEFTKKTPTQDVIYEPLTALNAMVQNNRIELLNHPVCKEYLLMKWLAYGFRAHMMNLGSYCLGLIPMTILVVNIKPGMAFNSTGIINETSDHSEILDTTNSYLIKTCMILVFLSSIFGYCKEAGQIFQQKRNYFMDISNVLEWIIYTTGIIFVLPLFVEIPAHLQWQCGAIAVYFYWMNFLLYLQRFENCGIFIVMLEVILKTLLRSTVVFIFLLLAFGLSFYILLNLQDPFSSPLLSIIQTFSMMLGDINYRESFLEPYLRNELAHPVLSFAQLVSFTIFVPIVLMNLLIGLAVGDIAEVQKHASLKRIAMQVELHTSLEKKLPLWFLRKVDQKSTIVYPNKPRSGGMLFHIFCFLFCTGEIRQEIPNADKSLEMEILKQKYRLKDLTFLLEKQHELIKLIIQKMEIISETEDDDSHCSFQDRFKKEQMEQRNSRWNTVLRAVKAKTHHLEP

| Block of L-Menthol activation of TRPA1 (human TRPA1 [1]; [3]) | Average Ca2+ Counts (human TRPV1; [4]) [Counts] | inhibition at 100 µM (human TRPV1) [%] | SMILES | other results |
| --- | --- | --- | --- | --- |
| BLOCK ONLY MENTHOL/TRPA1 | 3633.0 | 43.2 | COc1ccc(OC)cc1 [1,4-dimethoxybenzene] | – |
| BLOCK ONLY MENTHOL/TRPA1 | 1112.7 | 40.5 | Cc1ccc(C(C)C)cc1 [1-isopropyl-4-methylbenzene] | – |
| BLOCK ONLY MENTHOL/TRPA1 | 1442.3 | 25.2 | CCCCCCCCO [1-octanol] | – |
| BLOCK ONLY MENTHOL/TRPA1 | – | – | CCC(O)c1ccccc1 (centres unmarked) [1-phenyl 1-propanol] | – |
| BLOCK ONLY MENTHOL/TRPA1 | 972.0 | 47 | Cc1nc(C)c(C)nc1C [2,3,5,6-tetramethylpyrazine] | – |
| BLOCK ONLY MENTHOL/TRPA1 | 1339.3 | 30 | Cc1ccc(C)c(O)c1C [2,3,6-trimethylphenol] | – |
| BLOCK ONLY MENTHOL/TRPA1 | 1040.0 | 43.8 | Cc1cnc(C)cn1 [2,5-dimethylpyrazine] | – |
| BLOCK ONLY MENTHOL/TRPA1 | 1480.7 | 23.4 | CCCOC(C)OCCc1ccccc1 (centres unmarked) [2-(1-propoxyethoxy)ethylbenzene] | – |
| BLOCK ONLY MENTHOL/TRPA1 | – | – | C=CC1(C)CCC(C(=C)C)O1 (centres unmarked) [2-Isopropenyl-5-Methyl-5-Vinyltetrahydrofuran] | – |
| BLOCK ONLY MENTHOL/TRPA1 | 3569.5 | 23.1 | CC(=O)c1nccs1 [2-acetylthiazole] | – |
| BLOCK ONLY MENTHOL/TRPA1 | 1207.7 | 36.1 | O=C(Nc1ccccc1C(=O)O)c1ccccc1 [2-benzoylamino-benzoic acid] | – |
| BLOCK ONLY MENTHOL/TRPA1 | 1432.7 | 25.7 | CCc1nccnc1OC [2-ethyl-3-methoxypyrazine] | – |
| BLOCK ONLY MENTHOL/TRPA1 | 1050.3 | 43.3 | COc1ccccc1C=O [2-methoxybenzaldehyde] | – |
| BLOCK ONLY MENTHOL/TRPA1 | 993.7 | 46 | CC1OCCC1=O (centres unmarked) [2-methyltetrahydro-3-furanone] | – |
| BLOCK ONLY MENTHOL/TRPA1 | – | – | CCC(C)C1CCCCC1=O (centres unmarked) [2-sec-butylcyclohexanone] | – |
| BLOCK ONLY MENTHOL/TRPA1 | 1083.3 | 41.8 | CC(=O)c1ccccc1O [2′-hydroxyacetophenone] | – |
| BLOCK ONLY MENTHOL/TRPA1 | 1061.3 | 42.8 | CC(=O)OCCC(C)S (centres unmarked) [3-mercaptobutyl acetate] | – |
| BLOCK ONLY MENTHOL/TRPA1 | 1554.0 | 20 | CSC(C)C(C)=O (centres unmarked) [3-methylthio-2-butanone] | – |
| BLOCK ONLY MENTHOL/TRPA1 | 3377.0 | 47.2 | O=C(C=Cc1ccccc1)OCC=Cc1ccccc1 [3-phenyl-2-propen-1-yl 3-phenylacrylate] | – |
| BLOCK ONLY MENTHOL/TRPA1 | 1399.0 | 27.2 | COc1ccc(COC=O)cc1 [4-methoxybenzyl formate] | – |
| BLOCK ONLY MENTHOL/TRPA1 | 2707.0 | 32.9 | CC(C)CC(=O)Cc1ccccc1 [4-methyl-1-phenyl-2-pentanone] | – |
| BLOCK ONLY MENTHOL/TRPA1 | 1292.3 | 32.1 | COc1cc(C)cc(OC)c1O [4-methyl-2,6-dimethoxyphenol] | – |

| Block of L-Menthol activation of TRPA1 (human TRPA1 [1]; [3]) | Average Ca2+ Counts (human TRPV1; [4]) [Counts] | inhibition at 100 µM (human TRPV1) [%] | SMILES | other results |
| --- | --- | --- | --- | --- |
| BLOCK ONLY MENTHOL/TRPA1 | 1227.7 | 35.1 | C=Cc1scnc1C [4-methyl-5-vinylthiazole] | – |
| BLOCK ONLY MENTHOL/TRPA1 | 2968.5 | 26.4 | CC(=O)C(=O)CC(C)C [5-methyl-2,3-hexanedione] | – |
| BLOCK ONLY MENTHOL/TRPA1 | 2807.0 | 30.5 | CC1(C)C2CC[C@@]1(C)C(=O)C2 [(1r)-(+)-camphor] | – |
| BLOCK ONLY MENTHOL/TRPA1 | – | – | C/C=C(/C)C(=O)OCC(C)C [Angelic Acid Isobutyl Ester] | – |
| BLOCK ONLY MENTHOL/TRPA1 | – | – | CC(=O)CCC=C(C)CCC=C(C)CCC=C(C)C [Farnesylacetone] | – |
| BLOCK ONLY MENTHOL/TRPA1 | – | – | CCCCCCCC/C=C\CCCCCCCC(=O)O [Oleic acid] | – |
| BLOCK ONLY MENTHOL/TRPA1 | – | – | CCCCCCCCCCCCC(=O)O [Tridecanoic acid] | – |
| BLOCK ONLY MENTHOL/TRPA1 | 2572.0 | 44.6 | C=CCOC(=O)CCCCCCC [allyl caprylate] | – |
| BLOCK ONLY MENTHOL/TRPA1 | 2923.5 | 27.6 | O=COCc1ccccc1 [benzyl formate] | – |
| BLOCK ONLY MENTHOL/TRPA1 | 2744.5 | – | C=C1CC/C=C(\C)CC[C@@H]2[C@@H]1CC2(C)C [beta-caryophyllene] | % Reduction of L-Menthol TRPV1 Activation (human TRPV1; [4]): 32.0% |
| BLOCK ONLY MENTHOL/TRPA1 | 1317.3 | 31 | O=C(O)c1ccc(O)cc1O [beta-resorcylic acid] | – |
| – | – | – | C[N+](C)(C)CCO.O=C([O-])C(O)C(O)C(=O)O (centres unmarked) [choline bitartrate] | % Reduction of L-Menthol TRPV1 Activation (human TRPV1): 39.1%; Average Ca2+ Counts (human TRPV1): 1141.3 Counts; Block of L-Menthol activation of TRPA1 (human TRPA1 [1]): BLOCK ONLY MENTHOL/TRPA1 |
| BLOCK ONLY MENTHOL/TRPA1 | 2987.5 | 26 | CC/C=C\CCOC(=O)CCC [cis-3-hexenyl butyrate] | – |
| BLOCK ONLY MENTHOL/TRPA1 | 1424.7 | 26 | CCCC/C=C\CCO [cis-3-octen-1-ol] | – |
| BLOCK ONLY MENTHOL/TRPA1 | 1097.0 | 41.2 | CC(C)=CCCC(C)CCOC=O (centres unmarked) [citronellyl formate] | – |
| BLOCK ONLY MENTHOL/TRPA1 | 1293.3 | 32.1 | C=CCSCC=C [diallyl sulfide] | – |
| BLOCK ONLY MENTHOL/TRPA1 | 1398.0 | 27.3 | CCCCOC(=O)CCCCCCCCC(=O)OCCCC [dibutyl sebacate] | – |
| – | – | – | O=C(O)CN(CCN(CC(=O)O)CC(=O)O)CC(=O)O [edta] | % Reduction of L-Menthol TRPV1 Activation (human TRPV1): 34.8%; Average Ca2+ Counts (human TRPV1): 1236.0 Counts; Block of L-Menthol activation of TRPA1 (human TRPA1 [1]): BLOCK ONLY MENTHOL/TRPA1 |
| BLOCK ONLY MENTHOL/TRPA1 | 1000.3 | 45.7 | CCOC(=O)C(=O)CC(=O)CC [ethyl 2,4-dioxohexanoate] | – |
| BLOCK ONLY MENTHOL/TRPA1 | 4446.5 | 30.5 | CCOC(=O)CCc1ccco1 [ethyl 3-(2-furyl)propionate] | – |
| BLOCK ONLY MENTHOL/TRPA1 | – | – | CCCCC/C=C/C=C/C=O [trans,trans-2,4-Decadienal] | – |

| SMILES | Block of L-Menthol activation of TRPA1 (human TRPA1 [1]; [3]) | Average Ca2+ Counts (human TRPV1; [4]) [Counts] | inhibition at 100 µM (human TRPV1) [%] | other results |
| --- | --- | --- | --- | --- |
| CC(=O)OCC1=CCC2C[C@@H]1C2(C)C | BLOCK ONLY MENTHOL/TRPA1 | – | – | – |
| COC(C=C(C)CCC=C(C)C)OC (mixture of isomers) | BLOCK ONLY MENTHOL/TRPA1 | – | – | – |
| CC(C)=CCCC(C)CCO (racemic) [(+−)-beta; -Citronellol] | BLOCK ONLY MENTHOL/TRPA1 | – | – | – |
| COc1ccccc1C(=O)O [2-methoxybenzoic acid] | BLOCK ONLY MENTHOL/TRPA1 | 1441.7 | 25.2 | – |
| O=C(O)c1ccc(O)c(O)c1 [3,4-dihydroxybenzoic acid] | BLOCK ONLY MENTHOL/TRPA1 | 1539.7 | 20.7 | – |
| O=C1O[C@H]([C@@H](O)CO)C([O-])=C1O.[Na+] [(+)-Sodium L-ascorbate] | BLOCK ONLY MENTHOL/TRPA1 | – | – | – |
| CCOC(=O)C(Cc1ccccc1)C(C)=O (centres unmarked) [ethyl 2-benzylacetoacetate] | BLOCK ONLY MENTHOL/TRPA1 | 1548.3 | 20.3 | – |
| OCc1ccco1 [furfuryl alcohol] | BLOCK BOTH MENTHOL AND H2O2 ON TRPA1 | – | – | Average Ca++ Counts (human TRPA1 [2]): 5585.5 Counts; Block of hydrogen peroxide activation of TRPA1 (human TRPA1 [2]): BLOCK BOTH MENTHOL AND H2O2 ON TRPA1; inhibition at 100 µM (human TRPA1 [2]; read-out: % Reduction of Hydrogen Peroxide TRPA1 Activation): 47.3% |
| O=C/C=C/c1ccccc1 [trans-Cinnamaldehyde] | BLOCK ONLY MENTHOL/TRPA1 | – | – | – |
